Results on 3 compounds are retold here after ChEMBL document CHEMBL3272080, “Analogues of luteinizing hormone releasing factor modified at positions 2, 6, and 10” (J Med Chem, 1976).

Data set [1] can be described thus: Retardation factor in 1-butanol-ethyl acetate-acetic acid-water at 1:1:1:1 ratio by TLC. It is filed as physicochemical. The note with it: buffer.
A short description of data set [2]: Retardation factor in 2-butanol-0.1 N ammonium hydroxide at 1:1 ratio by TLC. It is filed as physicochemical.
A short description of data set [3]: Inhibition of LRF-induced luteinizing hormone secretion in rat anterior pituitary cells relative to [des-His2,D-Ala6]-LRF. It is filed as functional, Pituitary gland cell.
Data set [4] in a line: Retardation factor in ethyl acetate-pyridine-acetic acid-water at 5:5:1:3 ratio by TLC. It counts as physicochemical. The note with it: buffer.
Data set [5] can be described thus: Retardation factor in 1-butanol-pyridine-0.1% acetic acid at 5:3:11 ratio by TLC. It is filed as physicochemical.
Data set [6] in a line: Retardation factor in 2-butanol-water at 1:1 ratio by TLC. It is filed as physicochemical. The note with it: buffer.
The nature of data set [7]: Retardation factor in 1-butanol-acetic acid-water at 4:1:5 ratio by TLC. It counts as physicochemical. The note with it: buffer.
Data set [8] can be described thus: Retardation factor in 1-butanol-2-propanol-1 N ammonium hydroxide-ethyl acetate at 1:1:2.5:1 ratio by TLC. It counts as physicochemical.
The nature of data set [9]: Retardation factor in 2-butanol-0.1 N acetic acid at 1:1 ratio by TLC. It counts as physicochemical.

*1 amine or outer side, *2 acyl side, *3 side chain or, on linkers, in order; H or OH if unused. Where a SMILES comes first, the peptide text is derived from it. [ ]: non-standard residue; d: D form. X1 = CCCCCCCCCCCCNCCC[C@@H](N[*:1])C(=O)[*:2]; pGlu = O=C1CC[C@@H](C(=O)O)N1

For the compound `CCCCCCCCCCCCNCCCC[C@@H](NC(=O)[C@H](Cc1ccc(O)cc1)NC(=O)[C@H](CO)NC(=O)[C@H](Cc1c[nH]c2ccccc12)NC(=O)[C@@H]1CCC(=O)N1)C(=O)N[C@@H](CC(C)C)C(=O)N[C@@H](CCCNC(=N)N)C(=O)N1CCC[C@H]1C(=O)NCC`, the Rf in [1] turned out to be 0.83; in data set [2], 0.45; in [4] it was 0.53; in [5], 0.73; in data set [6] it was 0.46; in data set [7], 0.63. Further, the Rf in data set [8] came to 0.47; in data set [9] it was 0.52. Besides, the “fold change (FC)” value in data set [3] was 276.

For `CCCCCCCCCCCCNCCCC[C@@H](NC(=O)[C@H](Cc1ccc(O)cc1)NC(=O)[C@H](CO)NC(=O)[C@H](Cc1c[nH]c2ccccc12)NC(=O)[C@@H]1CCC(=O)N1)C(=O)N[C@@H](CC(C)C)C(=O)N[C@@H](CCCNC(=N)N)C(=O)N1CCC[C@H]1C(=O)NCC(N)=O`, the Rf in data set [1] came out at 0.78; in [2] it was 0.43; in data set [4], 0.48; in data set [5], 0.66; in data set [6], 0.44; in data set [7], 0.52. Further, the Rf stood at 0.44 in [8] and 0.46 in [9]. For the same compound, in data set [3], the “fold change (FC)” value is given as 284.

Turning to `CCCCCCCCCCCCNCCC[C@@H](NC(=O)[C@H](Cc1ccc(O)cc1)NC(=O)[C@H](CO)NC(=O)[C@H](Cc1c[nH]c2ccccc12)NC(=O)[C@@H]1CCC(=O)N1)C(=O)N[C@@H](CC(C)C)C(=O)N[C@@H](CCCNC(=N)N)C(=O)N1CCC[C@H]1C(=O)NCC(N)=O` ([pGlu]WSY[X1]LRPG-NH2), the Rf in [1] came out at 0.78; in [2] it was 0.43; in data set [4], 0.48; in data set [5], 0.67; in data set [6] it was 0.45; in [7], 0.53. Further, the figures for the Rf in data set [8] and in data set [9] were 0.44 and 0.47, respectively. In [3], the “fold change (FC)” value is given as 278.
